Laboratory results: patent publication US20040191311A1, “Use of methyltestosterone as a drug for treatment of human papilloma virus infections” (priority 2002, published 2004)
Entries after “also recorded” stand apart in the source; their conditions may differ.

How the values were obtained:
[1] = test system: verruca planae caused by HPV; experiment: Clinical treatment of verruca planae patients with methyltestosterone tablets; format: in vivo, human; conditions: for outcome at follow-up visit: 8 weeks later
[2] = test system: condyloma acuminatum caused by HPV; experiment: Clinical treatment of condyloma acuminatum patients with methyltestosterone tablets after operation, laser or freezing; format: in vivo, human; conditions: for relapse of lesions: in 6 months
Procedure: The study protocol using methyltestosterone as a treatment for verruca planae and condyloma acuminatum caused by HPV includes:
Some of the patients were the relapsed ones after the treatment by transferor, interferon, and interleukins.
Methyltestosterone is a tablet, manufactured by Southwest Pharmaceutical Company and the Second Pharmaceutical Company of Chengdu, China. The dosage was 5 mg/tablet.
Methyltestosterone was administered orally, 1 tablet/time, three times/day, and 5 days consecutively, followed by 1 tablet/time, two times/day, for additional 5-10 days consecutively.
One of the following would be considered as cure: A) there were no new vegetations at or around the lesion for at least six months after administration of methyltestosterone for 10-15 days following treatment with physical, chemical, and operational therapies. B) the vegetations reappeared in two months after operations and were positive for the acetowhitening test, but regressed for at least 6 months after administration of methyltestosterone for 10-15 days.

[3] = of 96 cases with facial verruca planae
[4] = out of 7 cases with hand and neck verruca planae

With `CC12CCC(=O)C=C1CCC1C2CCC2(C)C1CCC2(C)O` (stereo not drawn) [methyltestosterone] the time to cure ([1]; Case 1: facial verruca planae 2 years, 1 tablet twice daily for 3 days) was 2 weeks, the “time until all lesions regressed” value ([1]; Case 2: facial verruca planae 1 year, 1 tablet twice daily for 3 days) was 4 weeks and the “time until all lesions regressed” value ([1]; Case 3: facial verruca planae 4 years, 1 tablet twice daily for 3 days) was 4 weeks. The lesions regressed ([1]; Case 4: facial verruca planae 13 years, 1 tablet twice daily for 5 days, in 6 weeks) was 90%, the “time until lesions on the face regressed” value ([1]; Case 5: hand and neck verruca planae 10 years, 1 tablet twice daily for 10 days) was 2 months and the time to cure ([1]; Case 6: facial verruca planae 3 months, 1 tablet once daily for 5 days plus Vitamin B2, Vitamin B6 and brimstone lotion) was 4 weeks. The “outcome at follow-up visit” value ([1]; Case 7: facial verruca planae, 1 tablet twice daily for 5 days) was “cured”, the “outcome at follow-up visit” value ([1]; Case 8: facial verruca planae one year, 1 tablet once daily for 5 days) was “cured” and the outcome of lesions ([1]; Case 9: facial verruca planae relapsed after laser, 1 tablet three times daily for 5 days) was “regressed mostly”. For the same compound, the “time until papules regressed completely” value ([1]; Case 10: flat papules on forehead and blepharons, 1 tablet three times daily for 4 days) was 3 weeks, the non-responsive rate ([1]; facial verruca planae, 96 cases) was 2% and the cure rate ([1]; facial verruca planae, 96 cases, 5 mg tablet hypoglossally, two or three times/day, 3-5 days, cure = all facial exanthems regressed) was 88.5%. For the same compound, the effective rate ([1]; facial verruca planae, 96 cases, effective = 70% of exanthems disappeared) was 9.4%, the effective rate ([1]; hand and neck verruca planae, 7 cases) was 86% and the cases cured [1, 3] was 85 cases. The cases effective [1, 3] was 9 cases, the “cases non-responsive to the medication” value [1, 3] was 2 cases and the cases cured [1, 4] was 1 cases. The “cases regressed after 5 weeks following the treatment” value [1, 4] was 3 cases, the cases remaining non-responsive [1, 4] was 1 cases and the “relapse of condyloma acuminatum” value ([2]; 61 patients, methyltestosterone 10-15 days following operations, follow-up 6 months to 1 year) was “None of the patients relapsed; also recorded: no relapse case; also recorded: no relapses occurred”. For the same compound, the relapse of lesions ([2]; Case 11: penis, laser, then 1 tablet three times daily 5 days and twice daily 5 days) was “did not relapse”, the relapse of lesions ([2]; Case 12: anus, CO2 laser, then 1 tablet three times daily 5 days and twice daily 10 days) was “did not relapse” and the new vegetations ([2]; Case 13: vulva and anus, CO2 laser, then 1 tablet three times daily 5 days and twice daily 5 days, in 4 weeks) was “no new vegetations appearing”. The relapse ([2]; Case 14: anus, CO2 laser, then 1 tablet twice daily for 10 days, in a year) was “No relapse occurred”, the “outcome of wound and vegetations” value ([2]; Case 15: prepuce, CO2 laser, then 1 tablet three times daily for 10 days, wound healed in 4 weeks) was “no scars left nor new vegetations growing” and the “time until wound healed with negative acetowhitening test” value ([2]; Case 16: after the methyltestosterone treatment) was 6 weeks. For the same compound, the relapse ([2]; Case 16: relapsed after freezing and interferon, CO2 laser, then 1 tablet three times daily 5 days and twice daily 10 days, in one year) was “no relapse occurred”, the “evaluation by Chinese Ministry of Health and WHO criteria for condyloma acuminatum” value ([2]; all condyloma acuminatum cases) was “all cases are considered as cure” and the “outcome of the two cases relapsed after operation and cytokine (interleukin II) treatment” value ([2]; two relapsed cases, then methyltestosterone treatment) was “cured; also recorded: healed the lesions”.
